Values quoted from earlier work, collected in patent US12472272B2, “Radiolabelled compounds for diagnosis or treatment of prostate-specific membrane antigen- expressing cancer” (PROVINCIAL HEALTH SERVICES AUTHORITY, priority 2019, dated 2025).

Tests used:
tumor = conditions: Kuo et al. 2018, cited from earlier work
[1] = test system: metastatic prostate cancer; conditions: cited from earlier work

## O=C([O-])CN1CCN(CC(=O)[O-])CCN(CC(=O)NCC2CCC(C(=O)N[C@@H](Cc3ccc4ccccc4c3)C(=O)NCCCC[C@H](NC(=O)N[C@@H](CCC(=O)O)C(=O)O)C(=O)O)CC2)CCN(CC(=O)[O-])CC1.[177Lu+3] (stereo partly shown) [^177Lu-PSMA-617]
tumor; 120 h post-injection
  tumor uptake: ~8 % ID/g
tumor; reported previously
  peaked tumor uptake: ~15 % ID/g
[1]; human, in vivo
  complete response rate: < 7%
  patients with progressive disease after treatment: up to 33%
  side effects: without severe side effects
[1]; metastatic prostate cancer
  patients having >50% reduction in PSA levels: 32-60%
[1]; phase 2 Australian study, patients with measurable nodal or visceral disease
  objective response: 82%
